Source: patent US12435044B2, “Pyridazinone herbicides and pyridazinone intermediates used to prepare a herbicide” (FMC Corporation, priority 2018, dated 2025)

Tests used:
Type in all cases: in vivo
rice (Oryza sativa) = assay: Test B flooded paddy test; conditions: Flood, 250 g ai/ha
Description: (§1) Plant species in the flooded paddy test selected from rice (Oryza sativa), sedge, umbrella (small-flower umbrella sedge, Cyperus difformis), duck salad (Heteranthera limosa) and barnyardgrass (Echinochloa crus-galli) were grown to the 2-leaf stage for testing. At time of treatment, test pots were flooded to 3 cm above the soil surface, treated by application of test compounds directly to the paddy water, and then maintained at that water depth for the duration of the test. Treated plants and controls were maintained in a greenhouse for 13 to 15 d, after which time all species were compared to controls and visually evaluated. Plant response ratings, summarized in Table B, are based on a scale of 0 to 100 where 0 is no effect and 100 is complete control. A dash (-) response means no test result.

[1] = system: duck salad (Heteranthera limosa); assay: Test B flooded paddy test; conditions: Flood, 250 g ai/ha, Ducksalad
Description: as §1

[2] = system: barnyardgrass (Echinochloa crus-galli); assay: Test B flooded paddy test; conditions: Flood, 250 g ai/ha
Description: as §1

[3] = system: sedge, umbrella (small-flower umbrella sedge, Cyperus difformis); assay: Test B flooded paddy test; conditions: Flood, 250 g ai/ha
Description: as §1

[4] = system: barnyardgrass (Echinochloa crus-galli); assay: Test C flooded paddy test; conditions: Flood, scale 0 to 100
From the text: as §1, with “consisted of” for “selected from”, “(transplanted and water seeded, Oryza” for “(Oryza”, “ducksalad” for “duck salad”, “limosa), Bulrush, Japanese (Scirpus juncoides)” for “limosa)”, “crus-galli)” for “crus-galli) were”, “C” for “B,”

[5] = system: sedge, umbrella (small-flower umbrella sedge, Cyperus difformis); assay: Test C flooded paddy test; conditions: Flood, scale 0 to 100
From the text: as §1, with “consisted of” for “selected from”, “(transplanted and water seeded, Oryza” for “(Oryza”, “ducksalad” for “duck salad”, “limosa), Bulrush, Japanese (Scirpus juncoides)” for “limosa)”, “crus-galli)” for “crus-galli) were”, “C” for “B,”

[6] = system: ducksalad (Heteranthera limosa); assay: Test C flooded paddy test; conditions: Flood, scale 0 to 100
From the text: as §1, with “consisted of” for “selected from”, “(transplanted and water seeded, Oryza” for “(Oryza”, “ducksalad” for “duck salad”, “limosa), Bulrush, Japanese (Scirpus juncoides)” for “limosa)”, “crus-galli)” for “crus-galli) were”, “C” for “B,”

[7] = system: rice (transplanted and water seeded, Oryza sativa); assay: Test C flooded paddy test; conditions: Flood, scale 0 to 100
From the text: as §1, with “consisted of” for “selected from”, “(transplanted and water seeded, Oryza” for “(Oryza”, “ducksalad” for “duck salad”, “limosa), Bulrush, Japanese (Scirpus juncoides)” for “limosa)”, “crus-galli)” for “crus-galli) were”, “C” for “B,”

[8] = system: chickweed (common chickweed, Stellaria media); assay: Test C postemergence greenhouse test; conditions: scale 0 to 100
From the text: (§2) Seeds of plant species selected from blackgrass (Alopecurus myosuroides), ryegrass, Italian (Lolium multiflorum), wheat, winter (winter wheat, Triticum aestivum), galium (catchweed bedstraw, Galium aparine), corn (Zea mays), crabgrass, large (Digitaria sanguinalis), foxtail, giant (Setaria faberii), johnsongrass (Sorghum halepense), lambsquarters (Chenopodium album), morningglory (Ipomoea coccinea), nutsedge, yellow (Cyperus esculentus), pigweed (Amaranthus retroflexus), ragweed (common ragweed, Ambrosia elatior), soybean (Glycine max), barnyardgrass (Echinochloa crus-galli), oilseed rape (Brassica napus), waterhemp (common waterhemp, Amaranthus rudis), pigweed, palmer (Amaranthus palmeri), kochia (Kochia scoparia), oat, wild (Avena fatua), surinam grass (Brachiaria decumbens), windgrass (Apera spica-venti), poinsettia, wild (Euphorbia heterophylla) and velvetleaf (Abutilon theophrasti) were planted into a silt loam soil and treated preemergence with test chemicals formulated in a non-phytotoxic solvent mixture which included a surfactant.
(§3) At the same time, plants selected from these crop and weed species and also chickweed (common chickweed, Stellaria media), buckwheat, wild (Polygonum convolvulus), mustard, wild (Sinapis arvensis), field poppy (Papaver rhoeas), field violet (Viola arvensis), nightshade (eastern black nightshade, Solanum ptycanthum), speedwell (bird's-eye speedwell, Veronica persica), horseweed (Conyza canadensis), cutleaf geranium (Geranium dissectum), and Canada thistle (Cirsium arvense) were planted in pots containing Redi-Earth® planting medium (Scotts Company, 14111 Scottslawn Road, Marysville, Ohio 43041) comprising spaghnum peat moss, vermiculite, wetting agent and starter nutrients and treated with postemergence applications of test chemicals formulated in the same manner. Plants ranged in height from 2 to 18 cm (1- to 4-leaf stage) for postemergence treatments. Treated plants and controls were maintained in a greenhouse for 13 to 21 d, after which time all species were compared to controls and visually evaluated. Plant response ratings, summarized in Table C-1 (postemergence) and C-2 (preemergence), are based on a scale of 0 to 100 where 0 is no effect and 100 is complete control. A dash (-) response means no test result.

[9] = system: waterhemp (common waterhemp, Amaranthus rudis); assay: Test C pre-/postemergence greenhouse test; conditions: scale 0 to 100
From the text: as §2, §3

soybean (Glycine max) = assay: Test C pre-/postemergence greenhouse test; conditions: scale 0 to 100
From the text: as §2, §3

[10] = system: oilseed rape (Brassica napus); assay: Test C pre-/postemergence greenhouse test; conditions: scale 0 to 100
From the text: as §2, §3

[11] = system: wheat, winter (winter wheat, Triticum aestivum); assay: Test C pre-/postemergence greenhouse test; conditions: scale 0 to 100
From the text: as §2, §3

[12] = system: field poppy (Papaver rhoeas); assay: Test C postemergence greenhouse test; conditions: scale 0 to 100
From the text: as §2, §3

## Cc1ccc2ccc(C)c(-c3c(O)c(Cl)nn(C)c3=O)c2c1 [Cpd. No. 20, 6-chloro-4-(2,7-dimethyl-1-naphthalenyl)-5-hydroxy-2-methyl-3(2H)-pyridazinone]
Rice (Oryza sativa)
  Plant response rating (0 to 100 scale): 15
[1]
  Plant response rating (0 to 100 scale): 100
[2]
  Plant response rating (0 to 100 scale): 25
[3]
  Plant response rating (0 to 100 scale): 90
[4]; 31 g ai/ha
  Plant response rating, Barnyardgrass: 0
[4]; 62 g ai/ha
  Plant response rating, Barnyardgrass: 0
[4]; 125 g ai/ha
  Plant response rating, Barnyardgrass: 0
[4]; 250 g ai/ha
  Plant response rating, Barnyardgrass: 20
[5]; 31 g ai/ha
  Plant response rating, Sedge, Umbrella: 0
[5]; 62 g ai/ha
  Plant response rating, Sedge, Umbrella: 0
[5]; 125 g ai/ha
  Plant response rating, Sedge, Umbrella: 50
[5]; 250 g ai/ha
  Plant response rating, Sedge, Umbrella: 70
[6]; 31 g ai/ha
  Plant response rating, Ducksalad: 0
[6]; 62 g ai/ha
  Plant response rating, Ducksalad: 30
[6]; 125 g ai/ha
  Plant response rating, Ducksalad: 70
[6]; 250 g ai/ha
  Plant response rating, Ducksalad: 85
[7]; 31 g ai/ha
  Plant response rating, Rice, Transplanted: 0
  Plant response rating, Rice, Water Seeded: 0
[7]; 62 g ai/ha
  Plant response rating, Rice, Transplanted: 0
  Plant response rating, Rice, Water Seeded: 0
[7]; 125 g ai/ha
  Plant response rating, Rice, Transplanted: 0
  Plant response rating, Rice, Water Seeded: 0
[7]; 250 g ai/ha
  Plant response rating, Rice, Transplanted: 0
  Plant response rating, Rice, Water Seeded: 0
[8]; 16 g ai/ha
  Plant response rating, Chickweed: 95
[8]; 31 g ai/ha
  Plant response rating, Chickweed: 95
[8]; 62 g ai/ha
  Plant response rating, Chickweed: 95
[8]; 125 g ai/ha
  Plant response rating, Chickweed: 98
[9]; Postemergence, 16 g ai/ha
  Plant response rating, Waterhemp: 75
[9]; Postemergence, 31 g ai/ha
  Plant response rating, Waterhemp: 70
[9]; Postemergence, 62 g ai/ha
  Plant response rating, Waterhemp: 95
[9]; Postemergence, 125 g ai/ha
  Plant response rating, Waterhemp: 95
[9]; Preemergence, 31 g ai/ha
  Plant response rating, Waterhemp: 100
[9]; Preemergence, 61 g ai/ha
  Plant response rating, Waterhemp: 65
[9]; Preemergence, 62 g ai/ha
  Plant response rating, Waterhemp: 100
[9]; Preemergence, 125 g ai/ha
  Plant response rating, Waterhemp: 100
Soybean (Glycine max); Postemergence, 16 g ai/ha
  Plant response rating, Soybean: 0
Soybean (Glycine max); Postemergence, 31 g ai/ha
  Plant response rating, Soybean: 10
Soybean (Glycine max); Postemergence, 62 g ai/ha
  Plant response rating, Soybean: 10
Soybean (Glycine max); Postemergence, 125 g ai/ha
  Plant response rating, Soybean: 20
Soybean (Glycine max); Preemergence, 31 g ai/ha
  Plant response rating, Soybean: 0
Soybean (Glycine max); Preemergence, 61 g ai/ha
  Plant response rating, Soybean: 0
Soybean (Glycine max); Preemergence, 62 g ai/ha
  Plant response rating, Soybean: 20
Soybean (Glycine max); Preemergence, 125 g ai/ha
  Plant response rating, Soybean: 60
[10]; Postemergence, 16 g ai/ha
  Plant response rating, Oilseed Rape: 0
[10]; Postemergence, 31 g ai/ha
  Plant response rating, Oilseed Rape: 0
[10]; Postemergence, 62 g ai/ha
  Plant response rating, Oilseed Rape: 0
[10]; Postemergence, 125 g ai/ha
  Plant response rating, Oilseed Rape: 0
[10]; Preemergence, 31 g ai/ha
  Plant response rating, Oilseed Rape: 0
[10]; Preemergence, 61 g ai/ha
  Plant response rating, Oilseed Rape: 0
[10]; Preemergence, 62 g ai/ha
  Plant response rating, Oilseed Rape: 0
[10]; Preemergence, 125 g ai/ha
  Plant response rating, Oilseed Rape: 0
[11]; Postemergence, 16 g ai/ha
  Plant response rating, Wheat: 0
[11]; Postemergence, 31 g ai/ha
  Plant response rating, Wheat: 0
[11]; Postemergence, 62 g ai/ha
  Plant response rating, Wheat: 0
[11]; Postemergence, 125 g ai/ha
  Plant response rating, Wheat: 0
[11]; Preemergence, 31 g ai/ha
  Plant response rating, Wheat: 60
[11]; Preemergence, 61 g ai/ha
  Plant response rating, Wheat: 0
[11]; Preemergence, 62 g ai/ha
  Plant response rating, Wheat: 60
[11]; Preemergence, 125 g ai/ha
  Plant response rating, Wheat: 70

## Cc1ccc2ccc(F)cc2c1-c1c(O)c(Cl)nn(C)c1=O [Cpd. No. 21]
Rice (Oryza sativa)
  Plant response rating (0 to 100 scale): 35
[1]
  Plant response rating (0 to 100 scale): 90
[2]
  Plant response rating (0 to 100 scale): 80
[3]
  Plant response rating (0 to 100 scale): 90
[4]; 31 g ai/ha
  Plant response rating, Barnyardgrass: 0
[4]; 62 g ai/ha
  Plant response rating, Barnyardgrass: 0
[4]; 125 g ai/ha
  Plant response rating, Barnyardgrass: 30
[4]; 250 g ai/ha
  Plant response rating, Barnyardgrass: 65
[5]; 31 g ai/ha
  Plant response rating, Sedge, Umbrella: 0
[5]; 62 g ai/ha
  Plant response rating, Sedge, Umbrella: 0
[5]; 125 g ai/ha
  Plant response rating, Sedge, Umbrella: 0
[5]; 250 g ai/ha
  Plant response rating, Sedge, Umbrella: 0
[6]; 31 g ai/ha
  Plant response rating, Ducksalad: 0
[6]; 62 g ai/ha
  Plant response rating, Ducksalad: 30
[6]; 125 g ai/ha
  Plant response rating, Ducksalad: 80
[6]; 250 g ai/ha
  Plant response rating, Ducksalad: 85
[7]; 31 g ai/ha
  Plant response rating, Rice, Transplanted: 0
[7]; 62 g ai/ha
  Plant response rating, Rice, Transplanted: 0
[7]; 125 g ai/ha
  Plant response rating, Rice, Transplanted: 0
[7]; 250 g ai/ha
  Plant response rating, Rice, Transplanted: 15
[12]; 16 g ai/ha
  Plant response rating, Field Poppy: 60
[12]; 31 g ai/ha
  Plant response rating, Field Poppy: 70
[12]; 62 g ai/ha
  Plant response rating, Field Poppy: 75
[12]; 125 g ai/ha
  Plant response rating, Field Poppy: 98
[9]; Postemergence, 16 g ai/ha
  Plant response rating, Waterhemp: 80
[9]; Postemergence, 31 g ai/ha
  Plant response rating, Waterhemp: 85
[9]; Postemergence, 62 g ai/ha
  Plant response rating, Waterhemp: 98
[9]; Postemergence, 125 g ai/ha
  Plant response rating, Waterhemp: 90
[9]; Preemergence, 31 g ai/ha
  Plant response rating, Waterhemp: 85
[9]; Preemergence, 61 g ai/ha
  Plant response rating, Waterhemp: 80
[9]; Preemergence, 62 g ai/ha
  Plant response rating, Waterhemp: 95
[9]; Preemergence, 125 g ai/ha
  Plant response rating, Waterhemp: 98
Soybean (Glycine max); Postemergence, 16 g ai/ha
  Plant response rating, Soybean: 10
Soybean (Glycine max); Postemergence, 31 g ai/ha
  Plant response rating, Soybean: 13
Soybean (Glycine max); Postemergence, 62 g ai/ha
  Plant response rating, Soybean: 20
Soybean (Glycine max); Postemergence, 125 g ai/ha
  Plant response rating, Soybean: 23
Soybean (Glycine max); Preemergence, 31 g ai/ha
  Plant response rating, Soybean: 0
Soybean (Glycine max); Preemergence, 61 g ai/ha
  Plant response rating, Soybean: 0
Soybean (Glycine max); Preemergence, 62 g ai/ha
  Plant response rating, Soybean: 0
Soybean (Glycine max); Preemergence, 125 g ai/ha
  Plant response rating, Soybean: 0
[10]; Preemergence, 31 g ai/ha
  Plant response rating, Oilseed Rape: 85
[10]; Preemergence, 61 g ai/ha
  Plant response rating, Oilseed Rape: 0
[10]; Preemergence, 62 g ai/ha
  Plant response rating, Oilseed Rape: 98
[10]; Preemergence, 125 g ai/ha
  Plant response rating, Oilseed Rape: 100
[11]; Postemergence, 16 g ai/ha
  Plant response rating, Wheat: 45
[11]; Postemergence, 31 g ai/ha
  Plant response rating, Wheat: 65
[11]; Postemergence, 62 g ai/ha
  Plant response rating, Wheat: 78
[11]; Postemergence, 125 g ai/ha
  Plant response rating, Wheat: 80
[11]; Preemergence, 31 g ai/ha
  Plant response rating, Wheat: 90
[11]; Preemergence, 61 g ai/ha
  Plant response rating, Wheat: 5
[11]; Preemergence, 62 g ai/ha
  Plant response rating, Wheat: 90
[11]; Preemergence, 125 g ai/ha
  Plant response rating, Wheat: 90
